SMILES strings stand for the structures. Where two headings read alike, the source gives them in different places. Where a SMILES comes first, the peptide text is derived from it.

We go through 20 molecules from US11400106B2, “Methods for inhibiting microbe growth” (priority 2018, dated 2022).

For one assay, the system named is E. coli. As to the kind of experiment: microbe, parasite or virus in culture. It counts as cell-based, Escherichia coli. The conditions noted are these: for MIC: Escherichia coli, 18 h, read-out: MIC, E. coli, MHB−. On the procedure:
(§1) In the following experiments, bacterial cells were cultured in 96-well microtiter plates in cation-adjusted Mueller-Hinton Broth (MHB) for 18 h at 37° C. The main strains used were E. coli (K-12 BW25113) (placed in stationary incubator) and S. aureus (Newman Strain) (incubated at 250 r.p.m). Knockout strains (ΔtolcC and ΔychM) were used from the Keio knockout collection (Baba et al., Construction of Escherichia coli K-12 in-frame, single-gene knockout mutants: the Keio collection. Mol Syst Biol 2, 2006 0008, doi:10.1038/msb4100050 (2006)). For MIC determination and checkerboard analyses, Clinical & Laboratory Standards Institute (CLSI) protocol was used. […] DiSC3 loading of S. aureus cells was performed as previously described (Farha et al., Collapsing the proton motive force to identify synergistic combinations against Staphylococcus aureus. Chemistry & biology 20, 1168-1178, doi:10.1016/j.chembiol.2013.07.006 (2013)). CCCP concentration of 20 μM was used. pH adjustments were made by addition of HCl or NaOH. INT assay and ATP bioluminescence assays were performed as previously described (Farha et al., Collapsing the proton motive force to identify synergistic combinations against Staphylococcus aureus. Chemistry & biology 20, 1168-1178, doi:10.1016/j.chembiol.2013.07.006 (2013)). For chemical-genomic studies, the Keio library was grown overnight in cation-adjusted MHB broth, in 384-well plates. From these, treatment plates (25 mM sodium bicarbonate, or a sterile water control) were inoculated and grown for 15 hours at 37° C., in a stationary incubator. Data was normalized according to Mangat et al (Mangat et al., Rank ordering plate data facilitates data visualization and normalization in high-throughput screening. J Biomol Screen 19, 1314-1320, doi:10.1177/1087057114534298 (2014)), with gene products and GO terms mined from EcoCyc. The GFP promoter library (Keseler et al., EcoCyc: fusing model organism databases with systems biology. Nucleic Acids Res 41, D605-612, doi:10.1093/nar/gks1027 (2013)) was grown for 18 hours at ambient temperature with the same inoculation strategy as with the Keio collection. The analysis pipeline of Zaslaver et al (Zaslaver et al., A comprehensive library of fluorescent transcriptional reporters for Escherichia coli. Nat Methods 3, 623-628, doi:10.1038/nmeth895 (2006)) was used to generate maps of promoter activity, from which lists of promoters with increased or decreased activity were compiled.
(§2) Fold enhancement in MICs in the media supplemented with sodium bicarbonate is represented by a positive fold, whereas suppression of activity is represented by a negative fold.
(§3) The effect of sodium bicarbonate on the activity of additional antibacterial agents was investigated. Clinical isolates of various bacteria were obtained from the ATCC and the IHMA.
(§4) The effect of sodium bicarbonate on the activity of cationic antiseptic agents was investigated. Clinical isolates of various bacteria were obtained from the ATCC and the IHMA.

For a further assay, the system named is S. aureus. Kind of assay: microbe, parasite or virus in culture. The conditions noted are these: for MIC: Staphylococcus aureus, read-out: MIC, S. aureus, MHB−. On the procedure: as §1, §2, §3, §4
[1] abbreviates: antibiotic agents, MHB in the absence of sodium bicarbonate.
The mark [2] stands for this setting: MHB in the absence of sodium bicarbonate.
[3] abbreviates: antiseptic agents, MHB in the absence of sodium bicarbonate.
Setting [4] is: antiseptic agents, MHB in the presence of 25 mM sodium bicarbonate.
The mark [5] stands for this setting: antiseptic agents, fold shift in MIC.

For the molecule `NCC[C@H](O)C(=O)N[C@@H]1C[C@H](N)[C@@H](O[C@H]2O[C@H](CN)[C@@H](O)[C@H](O)[C@H]2O)[C@H](O)[C@H]1O[C@H]1O[C@H](CO)[C@@H](O)[C@H](N)[C@H]1O` [Amikacin], the “MIC, E. coli, MHB+” value in the assay on E. coli was 4 μg of antimicrobial agent/mL of buffer. The MIC in the assay with E. coli (setting [1]) and in the assay on S. aureus (18 h) was 4 µg/mL in each case. Also, the “MIC, S. aureus, MHB+” value in the assay with S. aureus was 8 μg of antimicrobial agent/mL of buffer.
Regarding `CC1(C)S[C@@H]2[C@H](NC(=O)[C@H](N)c3ccc(O)cc3)C(=O)N2[C@H]1C(=O)O` [Amoxicillin], the MIC was 8 µg/mL in the assay with E. coli and 0.25 µg/mL in the assay on S. aureus (18 h). In the assay with S. aureus, the “MIC, S. aureus, MHB+” value was determined as 1.
`CC1(C)S[C@@H]2[C@H](NC(=O)[C@H](N)c3ccccc3)C(=O)N2[C@H]1C(=O)O` [Ampicillin]: the MIC in the assay with E. coli (setting [2]) is 16 µg/mL; in the assay on S. aureus (18 h), 1 µg/mL. Besides, the “MIC, S. aureus, MHB+” value in the assay with S. aureus was 8.
As for `CN[C@@H]1[C@@H](O[C@H]2O[C@H](CO)[C@@H](N)[C@H](O)[C@H]2O)OC2C[C@@H](N)[C@@H](O[C@H]3[C@H](O)[C@@H](O)[C@H](N)C[C@@H]3N)OC2[C@@H]1O` (some centres unmarked) [Apramycin], the MIC came to 32 µg/mL with E. coli (setting [2]) and 16 µg/mL in the assay on S. aureus (18 h). Besides, the “MIC, S. aureus, MHB+” value with S. aureus was 32.
In the same order, the values of `CC[C@H](C)[C@H](N)C1=N[C@H](C(=O)N[C@@H](CC(C)C)C(=O)N[C@H](CCC(=O)O)C(=O)N[C@H](C(=O)N[C@H]2CCCCNC(=O)[C@H](CC(N)=O)NC(=O)[C@@H](CC(=O)O)NC(=O)[C@H](Cc3cnc[nH]3)NC(=O)[C@@H](Cc3ccccc3)NC(=O)[C@H]([C@@H](C)CC)NC(=O)[C@@H](CCCN)NC2=O)[C@@H](C)CC)CS1` [Bacitracin] (HELM PEPTIDE1{[CC[C@H](C)[C@H](N)C1=N[C@H](C(=O)[*:2])CS1].L.[dE].I.K.[NCCC[C@@H](N[*:1])C(=O)[*:2]].I.[dF].H.[dD].N}$PEPTIDE1,PEPTIDE1,5:R3-11:R2$$$V2.0) are more than 256 µg/mL, 32 µg/mL and 64.
Turning to `CC[C@H](C)[C@@H]1NC(=O)[C@H](CCCNC(=N)N)NC(=O)[C@@H](NC(=O)[C@H](CC(C)C)NC(=O)[C@@H](N)CCCNC(=N)N)CSSC[C@@H](C(=O)N[C@@H](CCCNC(=N)N)C(=O)O)NC(=O)[C@H](C(C)C)NC(=O)[C@H](CCCNC(=N)N)NC(=O)[C@H]([C@@H](C)CC)NC(=O)[C@H](C(C)C)NC(=O)[C@H](C(C)C)NC1=O` [Bactenesin] (HELM PEPTIDE1{R.L.C.R.I.V.V.I.R.V.C.R}$PEPTIDE1,PEPTIDE1,3:R3-11:R3$$$V2.0; N-terminus and C-terminus assumed; bridges inferred), in the assay on E. coli, the “enhancement of antimicrobial activity in the presence of bicarbonate” value is 256 fold. In the assay on S. aureus (Newman, 18 h), the “MIC in MHB” value was determined as 128 µg/mL and the “MIC in MHB + 25 mM bicarbonate” value was found to be 0.5 µg/mL.
Consider `NC(=O)c1ccccc1` [Benzamide], for which the “MIC, E. coli, MHB+” value in the assay with E. coli was >128 μg of antimicrobial agent/mL of buffer. The MIC in the assay with E. coli (setting [1]) and in the assay on S. aureus (18 h) was more than 128 µg/mL each time. The “MIC, S. aureus, MHB+” value in the assay with S. aureus is given as >128 μg of antimicrobial agent/mL of buffer.
`N[C@@H]1CCCCN(c2c(F)cc3c(=O)c(C(=O)O)cn(C4CC4)c3c2Cl)C1` [Besifloxacin]: the “effect of 25 mM sodium bicarbonate on antibacterial activity” value in the assay with E. coli is given as “increased”. In addition, the MIC turned out to be 0.25 µg/mL with E. coli (setting [2]) and 0.125 µg/mL with S. aureus (18 h). In the assay with S. aureus, the “MIC, S. aureus, MHB+” value came out at 0.25.
Consider `N[C@@H](C(=O)N[C@@H]1C(=O)N2C(C(=O)O)=C(Cl)CS[C@H]12)c1ccccc1` [Cefaclor], for which the “MIC, E. coli, MHB+” value with E. coli is 4 μg of antimicrobial agent/mL of buffer. Also, the MIC with E. coli (setting [1]) was found to be 4 µg/mL; in the assay on S. aureus (18 h), 2 µg/mL. In the assay with S. aureus, the “MIC, S. aureus, MHB+” value is listed as 8 μg of antimicrobial agent/mL of buffer.
On to `CCN1CCN(C(=O)N[C@@H](C(=O)N[C@@H]2C(=O)N3C(C(=O)O)=C(CSc4nnnn4C)CS[C@H]23)c2ccc(O)cc2)C(=O)C1=O` [Cefoperazone], for which the MIC with E. coli (setting [2]) turned out to be 0.125 µg/mL; in the assay on S. aureus (18 h), 0.25 µg/mL. For the same molecule, the “MIC, S. aureus, MHB+” value in the assay with S. aureus is reported as 4.
For `CO/N=C(\C(=O)N[C@@H]1C(=O)N2C(C(=O)O)=C(COC(C)=O)CS[C@H]12)c1csc(N)n1` [Cefotaxime], the “MIC, E. coli, MHB+” value with E. coli is 8 μg of antimicrobial agent/mL of buffer. Moreover, the MIC with E. coli (setting [1]) worked out at 4 µg/mL; with S. aureus (18 h) it was 0.5 µg/mL. Besides, in the assay on S. aureus, the “MIC, S. aureus, MHB+” value was 2 μg of antimicrobial agent/mL of buffer.
In the case of `CO/N=C(\C(=O)N[C@@H]1C(=O)N2C(C(=O)O)=C(CSc3nc(=O)c(=O)[nH]n3C)CS[C@H]12)c1csc(N)n1` [Ceftriaxone], the MIC in the assay on E. coli (setting [2]) was 0.625 µg/mL; with S. aureus (18 h), 4 µg/mL. Besides, the “MIC, S. aureus, MHB+” value in the assay with S. aureus was 16.
For `CCCCCCCCCCCCCCCC[N+](C)(C)C.[Br-]` [Cetrimodium bromide], the “MIC, E. coli, MHB” value in the assay with E. coli (setting [3]) is >128 μg of antimicrobial agent/mL of buffer. Also, in the assay with E. coli (setting [4]), the “MIC, E. coli, MHB+” value is given as 32 μg of antimicrobial agent/mL of buffer. Further, the “Fold, E. coli” value with E. coli (setting [5]) turned out to be 4. Further, the “MIC, S. aureus, MHB” value in the assay with S. aureus (setting [3]) is listed as 16 μg of antimicrobial agent/mL of buffer. For the same molecule, in the assay with S. aureus (setting [4]), the “MIC, S. aureus, MHB+” value was 4 μg of antimicrobial agent/mL of buffer. For the same molecule, the “Fold, S. aureus” value in the assay with S. aureus (setting [5]) was 4.
`O=C(N[C@H](CO)[C@H](O)c1ccc([N+](=O)[O-])cc1)C(Cl)Cl` [Chloramphenicol]: the “effect of 25 mM sodium bicarbonate on antibacterial activity” value in the assay with E. coli is recorded as “remained largely unchanged”; in the assay with S. aureus (S. aureus, result in words) it was “remained largely unchanged”. Also, the MIC with E. coli (setting [2]) and in the assay on S. aureus (18 h) was 8 µg/mL throughout. Besides, in the assay with S. aureus, the “MIC, S. aureus, MHB+” value came out at 8.
As to `[H]/N=C(\N/C(=N/[H])NCCCCCCNC(=N)NC(=N)Nc1ccc(Cl)cc1)Nc1ccc(Cl)cc1` [Chlorhexidine], in the assay on E. coli, the “MIC, E. coli, MHB” value is recorded as 0.5 μg of antimicrobial agent/mL of buffer and the “MIC, E. coli, MHB+” value was 0.125 μg of antimicrobial agent/mL of buffer. In addition, in the assay with S. aureus, the “MIC, S. aureus, MHB” value is 0.5 μg of antimicrobial agent/mL of buffer and the “MIC, S. aureus, MHB+” value is recorded as 0.0625 μg of antimicrobial agent/mL of buffer.
For the molecule `CC[C@H]1OC(=O)[C@H](C)[C@@H](O[C@H]2C[C@@](C)(OC)[C@@H](O)[C@H](C)O2)[C@H](C)[C@@H](O[C@@H]2O[C@H](C)C[C@H](N(C)C)[C@H]2O)[C@](C)(OC)C[C@@H](C)C(=O)[C@H](C)[C@@H](O)[C@]1(C)O` [Clarithromycin], the “MIC, E. coli, MHB+” value with E. coli was 8 μg of antimicrobial agent/mL of buffer. The MIC in the assay on E. coli (setting [1]) was determined as 64 µg/mL; in the assay on S. aureus (18 h), 0.5 µg/mL. Moreover, in the assay with S. aureus, the “MIC, S. aureus, MHB+” value was 0.062 μg of antimicrobial agent/mL of buffer.
Take `CC[C@H]1OC(=O)[C@H](C)[C@@H](O[C@H]2C[C@@](C)(OC)[C@@H](O)[C@H](C)O2)[C@H](C)[C@@H](O[C@@H]2O[C@H](C)C[C@H](N(C)C)[C@H]2O)[C@](C)(O)C[C@@H](C)C(=O)[C@H](C)[C@@H](O)[C@]1(C)O` [Erythromycin]: the “MIC, S. aureus, MHB+” value in the assay on S. aureus is reported as 1. Further, in the assay on S. aureus (18 h), the MIC was 32 µg/mL.
On to `CC[C@H](C)[C@H](N)C(=O)N[C@@H](CC(C)C)C(=O)N1CCC[C@H]1C(=O)N[C@@H](Cc1c[nH]c2ccccc12)C(=O)N[C@@H](CCCCN)C(=O)N[C@@H](Cc1c[nH]c2ccccc12)C(=O)N1CCC[C@H]1C(=O)N[C@@H](Cc1c[nH]c2ccccc12)C(=O)N[C@@H](Cc1c[nH]c2ccccc12)C(=O)N1CCC[C@H]1C(=O)N[C@@H](Cc1c[nH]c2ccccc12)C(=O)N[C@@H](CCCNC(=N)N)C(=O)N[C@@H](CCCNC(=N)N)C(N)=O` [Indolicidin], for which the “enhancement of antimicrobial activity in the presence of bicarbonate” value with S. aureus (S. aureus, 25 mM sodium bicarbonate) turned out to be 16 fold.
As to `Cc1ncc([N+](=O)[O-])n1CCO` [Metronidazole], in the assay on S. aureus (18 h), the MIC was more than 128 µg/mL.
Consider `O=C([O-])O.[K+]` [Potassium bicarbonate], for which the “MIC of dirithromycin in the presence of the salt” value with E. coli (E. coli, salt at 25 mM, pH adjusted to 7.4) is 4 µg/mL.
